According to patent EP4653437A2 (Innovo Therapeutics Inc., priority 2023, dated 2024):

What was measured:
A549 cells = experiment: Measurement of PGE2-increasing activity in A549 cells (IL-1β stimulated, PGE2 quantified in supernatant); format: cell-based; conditions: Homo sapiens, 24 h; concentration of 1 µM of each compound; IL-1β treated A549 cells; read-out: Increased PGE2 production in A549 cells
Outline: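 PGE2 secreted into the supernatant was measured by immunoassay 24 h after treatment. Before treatment, A549 cells were cultured 24 h in 10% FBS F12K, washed, and placed in serum-free medium containing compound (DMSO 0.1% final) plus or minus IL-1β, incubated at 37 °C, 5% CO2.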

human 15-PGDH = target: T1, human 15-PGDH (Homo sapiens, UniProt P15428); experiment: Evaluation of 15-PGDH inhibitory activity (fluorescence enzyme assay, NAD+/PGE2); format: biochemical; conditions: human 15-PGDH enzyme, fluorescence Vmax
T1 construct: purchased R&D System 5660-DH
T1 sequence (P15428 1-266): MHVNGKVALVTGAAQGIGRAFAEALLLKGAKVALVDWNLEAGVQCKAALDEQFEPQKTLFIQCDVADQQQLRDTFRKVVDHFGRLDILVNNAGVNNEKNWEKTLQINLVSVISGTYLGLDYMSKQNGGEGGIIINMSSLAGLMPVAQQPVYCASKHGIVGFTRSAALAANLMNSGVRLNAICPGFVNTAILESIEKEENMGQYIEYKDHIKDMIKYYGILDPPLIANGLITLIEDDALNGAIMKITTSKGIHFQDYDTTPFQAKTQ
Description: 15-PGDH inhibition activity of Example compounds was measured as follows. 6.7 ng of human 15-PGDH (R&D System# 5660-DH) enzyme (10 µL) was added to a black 96 well plate, 60 µL of buffer (50 mM Tris-HCl, pH 7.5, 0.01% Tween 20) was added, and 10 µL of 200 µM β-Nicotinamide adenine dinucleotide sodium salt (Sigma, Cat# N0632-5G) was added. 10 µL of (10x) compound solution in DMSO was added and reacted for 10 minutes at room temperature.

| SMILES | fold induction at 1 µM (A549 cells) | IC50 (human 15-PGDH) |
| --- | --- | --- |
| Cn1cnc(-c2cccc3c(C(=O)N4CCCCC4)cnn23)cc1=O [Example 207, 3-methyl-6-(3-(piperidine-1-carbonyl)pyrazolo[1,5-a]pyridin-7-yl)pyrimidin-4(3H)-one] | < 1.5 | ≤ 100 nM |
| O=C(c1cccc(-c2cccc3c(C(=O)N4CCCCC4)cnn23)c1)N1CCOCC1 [Example 26, (7-(3-(morpholine-4-carbonyl)phenyl)pyrazolo[1,5-a]pyridin-3-yl)(piperidin-1-yl)methanone] | > 1.5 | ≤ 100 nM |
| Cn1nccc1-c1cc(-c2cccc3c(C(=O)N4CCCCC4)cnn23)cc(N2CCOC2=O)n1 [Example 367, 3-(6-(1-methyl-1H-pyrazol-5-yl)-4-(3-(piperidine-1-carbonyl)pyrazolo[1,5-a]pyridin-7-yl)pyridin-2-yl)oxazolidin-2-one] | > 1.5 | ≤ 100 nM |
| O=C(c1cnn2c(-c3cc(-c4noc(=O)[nH]4)cc([N+](=O)[O-])c3)cccc12)N1CCCCC1 [Example 329, 3-(3-nitro-5-(3-(piperidine-1-carbonyl)pyrazolo[1,5-a]pyridin-7-yl)phenyl)-1,2,4-oxadiazol-5(4H)-one] | > 1.5 | ≤ 100 nM |
| O=C(Cc1cncc(F)c1)Nc1ccc(-c2cccc3c(C(=O)N4CCCCC4)cnn23)cn1 [Example 409, 2-(5-fluoropyridin-3-yl)-N-(5-(3-(piperidine-1-carbonyl)pyrazolo[1,5-a]pyridin-7-yl)pyridin-2-yl)acetamide] | > 1.5 | ≤ 100 nM |
| O=C(Nc1ccc(-c2cccc3c(C(=O)N4CCCCC4)cnn23)cc1)C1CC1 [Example 100, N-(4-(3-(piperidine-1-carbonyl)pyrazolo[1,5-a]pyridin-7-yl)phenyl)cyclopropanecarboxamide] | > 1.5 | ≤ 100 nM |
| O=C(c1cnn2c(-c3cnn(Cc4noc(=O)[nH]4)c3)cccc12)N1CCCCC1 [Example 396, 3-((4-(3-(piperidine-1-carbonyl)pyrazolo[1,5-a]pyridin-7-yl)-1H-pyrazol-1-yl)methyl)-1,2,4-oxadiazol-5(4H)-one] | > 1.5 | ≤ 100 nM |
| Cc1nc(-c2c(F)cc(-c3cccc4c(C(=O)N5CCCCC5)cnn34)cc2F)no1 [Example 328, (7-(3,5-difluoro-4-(5-methyl-1,2,4-oxadiazol-3-yl)phenyl)pyrazolo[1,5-a]pyridin-3-yl)(piperidin-1-yl)methanone] | > 1.5 | ≤ 100 nM |
| N#Cc1cc(F)cc(-c2cccc3c(C(=O)N4CCCCC4)cnn23)c1 [Example 291, 3-fluoro-5-(3-(piperidine-1-carbonyl)pyrazolo[1,5-a]pyridin-7-yl)benzonitrile] | > 1.5 | ≤ 100 nM |
| N#Cc1ncc(-c2cccc3c(C(=O)N4CCCCC4)cnn23)cn1 [Example 293, 5-[3-(piperidine-1-carbonyl)pyrazolo[1,5-a]pyridin-7-yl]pyrimidine-2-carbonitrile] | > 1.5 | ≤ 100 nM |
| Cn1ccc(NC(=O)c2cncc(-c3cccc4c(C(=O)N5CCCCC5)cnn34)c2)n1 [Example 193, N-(1-methyl-1H-pyrazol-3-yl)-5-(3-(piperidine-1-carbonyl)pyrazolo[1,5-a]pyridin-7-yl)nicotinamide] | > 1.5 | ≤ 100 nM |
| O=C(Cc1ccc(C(F)(F)F)nc1)Nc1ccc(-c2cccc3c(C(=O)N4CCCCC4)cnn23)cn1 [Example 408, N-[5-[3-(piperidine-1-carbonyl)pyrazolo[1,5-a]pyridin-7-yl]-2-pyridyl]-2-[6-(trifluoromethyl)-3-pyridyl]acetamide] | > 1.5 | ≤ 100 nM |
| O=C(c1cnn2c(-c3ccc(F)nc3F)cccc12)N1CCCCC1 [Example 266, (7-(2,6-difluoropyridin-3-yl)pyrazolo[1,5-a]pyridin-3-yl)(piperidin-1-yl)methanone] | > 1.5 | ≤ 100 nM |
| O=C1NCc2ccc(-c3cccc4c(C(=O)N5CC6(C5)CC(F)(F)C6)cnn34)cc21 [Example 412, 6-(3-(6,6-difluoro-2-azaspiro[3.3]heptane-2-carbonyl)pyrazolo[1,5-a]pyridin-7-yl)isoindolin-1-one] | > 1.5 | ≤ 100 nM |
| CC(C)NC(=O)c1cccc(-c2cccc3c(C(=O)N4CCCCC4)cnn23)c1 [Example 28, N-isopropyl-3-(3-(piperidine-1-carbonyl)pyrazolo[1,5-a]pyridin-7-yl)benzamide] | > 1.5 | ≤ 100 nM |
| Cc1nc(-c2cc(-c3cccc4c(C(=O)N5CCCCC5)cnn34)ccc2F)no1 [Example 276, [7-[4-fluoro-3-(5-methyl-1,2,4-oxadiazol-3-yl)phenyl]pyrazolo[1,5-a]pyridin-3-yl]-(1-piperidyl)methanone] | > 1.5 | ≤ 100 nM |
| Cn1nc(N)c2ccc(-c3cccc4c(C(=O)N5CCCCC5)cnn34)cc21 [Example 310, [7-(3-amino-1-methyl-indazol-6-yl)pyrazolo[1,5-a]pyridin-3-yl]-(1-piperidyl)methanone] | > 1.5 | ≤ 100 nM |
| O=C(c1cncc(-c2cccc3c(C(=O)N4CCCCC4)cnn23)c1)N1CCNCC1 [Example 48, piperazin-1-yl(5-(3-(piperidine-1-carbonyl)pyrazolo[1,5-a]pyridin-7-yl)pyridin-3-yl)methanone] | < 1.5 | ≤ 100 nM |
| COC(=O)c1ncc(-c2cccc3c(C(=O)N4CCCCC4)cnn23)cc1F [Example 244, methyl 3-fluoro-5-[3-(piperidine-1-carbonyl)pyrazolo[1,5-a]pyridin-7-yl]pyridine-2-carboxylate] | < 1.5 | ≤ 100 nM |
| Cn1cnc(Nc2cccc3c(C(=O)N4CCCCC4)cnn23)cc1=O [Example 236, 3-methyl-6-[[3-(piperidine-1-carbonyl)pyrazolo[1,5-a]pyridin-7-yl]amino]pyrimidin-4-one] | > 1.5 | ≤ 100 nM |
| Cn1cnc2ccc(-c3cccc4c(C(=O)N5CCCCC5)cnn34)cc2c1=O [Example 245, 3-methyl-6-(3-(piperidine-1-carbonyl)pyrazolo[1,5-a]pyridin-7-yl)quinazolin-4(3H)-one] | > 1.5 | ≤ 100 nM |
| O=C(c1cnn2c(-c3cnc(F)c(F)c3)cccc12)N1CCCCC1 [Example 288, (7-(5,6-difluoropyridin-3-yl)pyrazolo[1,5-a]pyridin-3-yl)(piperidin-1-yl)methanone] | > 1.5 | ≤ 100 nM |
| O=C(c1cnn2c(-c3ccc(Cl)nc3F)cccc12)N1CCCCC1 [Example 315, (7-(6-chloro-2-fluoropyridin-3-yl)pyrazolo[1,5-a]pyridin-3-yl)(piperidin-1-yl)methanone] | > 1.5 | ≤ 100 nM |
| O=C(NCc1ccon1)c1cncc(-c2cccc3c(C(=O)N4CCCCC4)cnn23)c1 [Example 55, N-(isoxazol-3-ylmethyl)-5-(3-(piperidine-1-carbonyl)pyrazolo[1,5-a]pyridin-7-yl)nicotinamide] | > 1.5 | ≤ 100 nM |
| O=C(c1ncc(-c2cccc3c(C(=O)N4CCCCC4)cnn23)cc1F)N1CCOCC1 [Example 249, [7-[5-fluoro-6-(morpholine-4-carbonyl)-3-pyridyl]pyrazolo[1,5-a]pyridin-3-yl]-(1-piperidyl)methanone] | < 1.5 | ≤ 100 nM |
| O=C(c1cnn2c(-c3ccc(N4CC(CO)C4)nc3)cccc12)N1CCCCC1 [Example 221, (7-(6-(3-(hydroxymethyl)azetidin-1-yl)pyridin-3-yl)pyrazolo[1,5-a]pyridin-3-yl)(piperidin-1-yl)methanone] | > 1.5 | ≤ 100 nM |
| O=C(c1cnn2c(-c3cnc(-c4nnc(C(F)F)[s+]4[O-])nc3)cccc12)N1CCCCC1 (stereo not drawn) [Example 404, [7-[2-[5-(difluoromethyl)-1-oxo-1,3,4-thiadiazol-2-yl]pyrimidin-5-yl]pyrazolo[1,5-a]pyridin-3-yl]-(1-piperidyl)methanone] | > 1.5 | ≤ 100 nM |
| Cc1cnc(-c2ccc(-c3cccc4c(C(=O)N5CCCCC5)cnn34)cc2)s1 [Example 351, [7-[4-(5-methylthiazol-2-yl)phenyl]pyrazolo[1,5-a]pyridin-3-yl]-(1-piperidyl)methanone] | > 1.5 | ≤ 100 nM |
| O=C(c1cnn2c(-c3cnc4ccccc4c3)cccc12)N1CCCCC1 [Example 130, piperidin-1-yl(7-(quinolin-3-yl)pyrazolo[1,5-a]pyridin-3-yl)methanone] | > 1.5 | ≤ 100 nM |
| O=C(c1cnn2c(-c3ccc(N4CC(F)(F)C4)nc3)cccc12)N1CCCCC1 [Example 209, (7-(6-(3,3-difluoroazetidin-1-yl)pyridin-3-yl)pyrazolo[1,5-a]pyridin-3-yl)(piperidin-1-yl)methanone] | > 1.5 | ≤ 100 nM |
